Each molecule was assayed against T1, human RXFP1 (Homo sapiens, UniProt Q9HBX9) (assay: RXFP1 cAMP assay (hRXFP1 HEK293 cAMP assay, HTRF)). Settings: HEK293 cells stably expressing human RXFP1, 30 min at room temperature, read-out: cAMP hRXFP1 HEK293 Assay EC50.
T1 construct: expressed in transfected cells
T1 sequence (Q9HBX9 1-757): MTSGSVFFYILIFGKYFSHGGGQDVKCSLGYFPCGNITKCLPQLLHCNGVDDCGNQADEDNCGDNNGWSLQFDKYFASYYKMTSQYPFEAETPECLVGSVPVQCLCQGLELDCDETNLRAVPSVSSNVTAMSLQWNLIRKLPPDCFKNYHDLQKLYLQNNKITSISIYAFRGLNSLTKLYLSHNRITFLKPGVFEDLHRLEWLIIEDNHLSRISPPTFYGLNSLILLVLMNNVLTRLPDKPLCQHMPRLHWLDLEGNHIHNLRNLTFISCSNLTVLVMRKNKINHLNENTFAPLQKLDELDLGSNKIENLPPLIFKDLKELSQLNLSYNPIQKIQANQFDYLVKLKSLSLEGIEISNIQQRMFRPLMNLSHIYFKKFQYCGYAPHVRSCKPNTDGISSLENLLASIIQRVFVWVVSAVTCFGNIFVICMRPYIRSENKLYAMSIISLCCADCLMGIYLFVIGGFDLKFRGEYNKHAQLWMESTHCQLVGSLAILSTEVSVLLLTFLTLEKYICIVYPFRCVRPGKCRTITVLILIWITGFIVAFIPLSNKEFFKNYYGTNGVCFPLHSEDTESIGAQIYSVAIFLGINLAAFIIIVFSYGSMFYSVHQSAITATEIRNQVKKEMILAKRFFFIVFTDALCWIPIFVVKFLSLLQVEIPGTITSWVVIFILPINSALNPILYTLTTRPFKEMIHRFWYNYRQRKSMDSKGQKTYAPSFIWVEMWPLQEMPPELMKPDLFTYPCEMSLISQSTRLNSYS
Assay type: cell-based
Outline: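 hRXFP1-HEK293 stable line; HBSS + Ca/Mg, 20 mM HEPES, 0.05% BSA, 0.5 mM IBMX; cpd 0.010 nM–50 μM, 2% DMSO; 30 min RT; lysis, HTRF cAMP detection; 4-PL fit.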

| SMILES | EC50 |
| --- | --- |
| CCOC(=O)c1cc2cc(-c3ccc(OC)c(C(=O)N[C@@H]4C5CCC(/C5=C/C(F)(F)F)[C@@H]4C(=O)Nc4ccc(F)c(C(F)(F)F)c4)c3)ccc2[nH]1 (some centres unmarked) [compound 297] | 73 nM |
| COc1ccc(-c2cc(C(=O)NS(C)(=O)=O)ccc2F)cc1C(=O)N[C@@H]1C2CCC(/C2=C/Br)[C@@H]1C(=O)Nc1ccc(F)c(C(F)(F)F)c1 (some centres unmarked) [compound 161] | 110 nM |
| COc1ccc(-c2cc(C(=O)N3CC[C@@H](O)C3)on2)cc1C(=O)N[C@H]1[C@@H](C(=O)Nc2ccc(F)c(C(F)(F)F)c2)[C@H]2CC[C@@H]1/C2=C\C1CC1 [compound 617] | 153 nM |
| COc1cc(F)c(F)cc1C(=O)N[C@@H]1C2CCC(/C2=C/C2=CCCC2)[C@@H]1C(=O)Nc1ccc(F)c(C(F)(F)F)c1 (some centres unmarked) [compound 38] | 360 nM |
| COc1ccc(-c2cc(C(O)C(=O)O)ccc2F)cc1C(=O)N[C@@H]1C2CCC(/C2=C/C2CC2)[C@@H]1C(=O)Nc1ccc(F)c(C(F)(F)F)c1 (some centres unmarked) [compound 181] | 6 nM |
| COc1cc(F)c(F)cc1C(=O)N[C@@H]1C2CCC(/C2=C/c2ccc(Cl)cc2)[C@@H]1C(=O)Nc1ccc(F)c(C(F)(F)F)c1 (some centres unmarked) [compound 21] | 55 nM |
| COc1ccc(-c2cc(-c3nnn[nH]3)ccc2F)cc1C(=O)N[C@@H]1C2CCC(/C2=C/c2ccccc2)[C@@H]1C(=O)Nc1ccc(F)c(C(F)(F)F)c1 (some centres unmarked) [compound 152] | 8 nM |
| COc1ccc(C2=NOC3COCC23)cc1C(=O)N[C@H]1[C@@H](C(=O)NCCc2ccccc2C)[C@H]2CC[C@@H]1/C2=C\C1CC1 (some centres unmarked) [compound 520] | 19.3 nM |
| COc1ccc(-c2cccc3c2CN(C(=O)C2CCC2)C3)cc1C(=O)N[C@@H]1C2CCC(/C2=C/C2CC2)[C@@H]1C(=O)Nc1ccc(F)c(C(F)(F)F)c1 (some centres unmarked) [compound 872] | 8 nM |

Now from value to molecule:

| EC50 | SMILES |
| --- | --- |
| 2.7 nM | COc1ccc(-c2cccc3c2CN(C(=O)N(C)c2ccccc2)C3)cc1C(=O)N[C@H]1[C@@H](C(=O)Nc2ccc(F)c(C(F)(F)F)c2)[C@H]2CC[C@@H]1/C2=C\C1CC1 [compound 886] |
| 2.5 nM | CN(C)c1ccc(C2=NOC3COCC23)cc1C(=O)N[C@H]1[C@@H](C(=O)Nc2ccc(F)c(C(F)(F)F)c2)[C@H]2CC[C@@H]1/C2=C\C1CC1 (some centres unmarked) [compound 460] |
| 2 nM | COc1ccc(-c2cc(C(OC(=O)NC3CC4(CC4)C3)C(F)(F)F)ccc2F)cc1C(=O)N[C@@H]1C2CCC(/C2=C/C2CC2)[C@@H]1C(=O)Nc1ccc(F)c(C(F)(F)F)c1 (some centres unmarked) [compound 215] |
| 0.9 nM | C[C@@H](NC(=O)[C@@H]1[C@H](NC(=O)c2cc(C3=NOC4CC(CO)CC34)cc(F)c2OCC2CC2)[C@@H]2CC[C@H]1/C2=C/C1CC1)C1(C)CC1 (some centres unmarked) [compound 758] |
| 1.2 nM | COc1ccc(-c2cc(C(NC(=O)C3CCOCC3)C(=O)O)ccc2F)cc1C(=O)N[C@H]1[C@@H](C(=O)Nc2ccc(F)c(C(F)(F)F)c2)[C@H]2CC[C@@H]1/C2=C\CC(C)C (some centres unmarked) [compound 941] |
| 1.9 nM | COc1ccc(C2=NOC3CC(CO)CC23)cc1C(=O)N[C@H]1[C@@H](C(=O)Nc2ccc(F)c(C(F)(F)F)c2)[C@H]2CC[C@@H]1/C2=C\C(C)C (some centres unmarked) [compound 454] |
| 1.6 nM | COc1ccc(C2=NO[C@H]3C[C@H](CO)CN23)cc1C(=O)N[C@H]1[C@@H](C(=O)Nc2ccc(F)c(C(F)(F)F)c2)[C@H]2CC[C@@H]1/C2=C\C1CCCC1 [compound 816] |
| 3.7 nM | COc1ccc(-c2ccc(C(CC(=O)O)C(F)(F)F)cc2F)cc1C(=O)N[C@H]1[C@@H](C(=O)Nc2ccc(F)c(C(F)(F)F)c2)[C@H]2CC[C@@H]1/C2=C\C1CCCC1 (some centres unmarked) [compound 891] |
| 1 nM | COc1ccc(-c2cc(C(OC(=O)NC3CCC3)C(F)F)ccc2F)cc1C(=O)N[C@@H]1C2CCC(/C2=C/C2CC2)[C@@H]1C(=O)Nc1ccc(F)c(C(F)(F)F)c1 (some centres unmarked) [compound 231] |
| 2 nM | COc1ccc(C2=NOC3CC(CO)CC23)cc1C(=O)N[C@@H]1C2CCC(/C2=C/C2CC2)[C@@H]1C(=O)Nc1ccc(F)c(C(F)(F)F)c1 (single isomer, unassigned) [compound 432] |

Same assay, conditions: cAMP hRXFP1 HEK293 Assay EC50, HEK293 cells stably expressing human RXFP1, 30 min at room temperature

| SMILES | EC50 |
| --- | --- |
| COc1cc(F)c(F)cc1C(=O)N[C@@H]1C2CCC(/C2=C/c2c(Cl)cccc2Cl)[C@@H]1C(=O)Nc1ccc(F)c(C(F)(F)F)c1 (some centres unmarked) [compound 69] | 3700 nM |

Source: patent US20250221966A1, “RXFP1 AGONISTS” (BRISTOL-MYERS SQUIBB COMPANY, priority 2021, published 2025)
